Reference: US8664257B2, “Oxygen-substituted 3-heteroaroylamino-propionic acid derivatives and their use as pharmaceuticals” (Sanofi, priority 2010, dated 2014)
Like-named read-outs stand apart in the source and are kept apart here.

Molecular target: T1, Recombinant human cathepsin A (Homo sapiens, UniProt P10619)
T1 construct: Recombinant human cathepsin A (residues 29-480, with a C-terminal 10-His tag); 10-His (C); purchased R&D Systems 1049-SE
T1 sequence (P10619 29-312 limits assumed): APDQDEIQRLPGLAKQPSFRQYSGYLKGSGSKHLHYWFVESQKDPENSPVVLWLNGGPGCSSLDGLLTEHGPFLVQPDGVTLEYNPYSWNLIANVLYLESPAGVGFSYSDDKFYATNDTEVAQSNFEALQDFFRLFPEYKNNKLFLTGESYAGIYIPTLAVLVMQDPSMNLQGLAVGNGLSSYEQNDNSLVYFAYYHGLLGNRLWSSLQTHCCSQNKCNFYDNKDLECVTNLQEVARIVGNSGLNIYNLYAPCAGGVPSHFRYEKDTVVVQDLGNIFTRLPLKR
T1 sequence (P10619 327-480 limits assumed): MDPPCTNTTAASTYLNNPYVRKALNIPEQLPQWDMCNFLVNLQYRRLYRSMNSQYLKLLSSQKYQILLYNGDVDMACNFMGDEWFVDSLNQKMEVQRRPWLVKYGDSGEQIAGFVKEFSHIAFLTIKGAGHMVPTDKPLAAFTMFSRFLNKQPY
Assay: Cathepsin A inhibitory activity
Format: biochemical
Summary of the method: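 Read-out was microfluidic separation of cleaved vs. uncleaved Bodipy FL-bradykinin (2 μM), giving turnover, % inhibition and IC50. Compound and 833 ng/ml enzyme met for 15 min RT in pH 5.5 MES/DTT before substrate (15 min RT). The 29-480 His-tagged human enzyme was first activated by cathepsin L, then E-64 (10 μM).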

[1] = recombinant human cathepsin A, read-out: Activity (2): Cathepsin A inhibitory activity, IC50 class
[2] = recombinant human cathepsin A 833 ng/ml, Bodipy FL-labeled bradykinin 2 μM, pH 5.5, read-out: CATH-A IC50

| SMILES | IC50 [1] [nM] | IC50 [2] [nM] |
| --- | --- | --- |
| COc1ccc([C@H](CC(=O)O)NC(=O)c2cc(O)n(-c3ccc(F)cc3)n2)cc1 [Example 435] | 100 to 1000 | – |
| COc1ccc(C(CC(=O)O)NC(=O)c2cc(O)n(-c3ccc(F)cc3)n2)c(OC)c1 (stereo not drawn) [Example 436] | 1000 to 30000 | – |
| O=C(O)CC(NC(=O)c1cc(O)n(-c2ccc(F)cc2)n1)c1ccc(Oc2ccccc2)cc1 (stereo not drawn) [Example 437] | 100 to 1000 | – |
| COc1ccc([C@H](CC(=O)O)NC(=O)c2cc(O)n(-c3ccc(F)cc3)n2)cn1 [Example 438] | 100 to 1000 | – |
| O=C(O)CC(NC(=O)c1cc(O)n(-c2ccnc(Cl)c2)n1)c1ccc(-c2ccccc2)cc1 (stereo not drawn) [Example 439] | 100 to 1000 | – |
| O=C(O)CC(NC(=O)c1cc(O)n(-c2cccnc2)n1)c1ccc(-c2ccccc2)cc1 (stereo not drawn) [Example 440] | 1000 to 30000 | – |
| COc1cccc(F)c1C(CC(=O)O)NC(=O)c1cc(O)n(-c2ccccc2)n1 (stereo not drawn) [Example 441, 3-(2-Fluoro-6-methoxy-phenyl)-3-[(5-hydroxy-1-phenyl-1H-pyrazole-3-carbonyl)-amino]-propionic acid] | 100 to 1000 | 513 |
| O=C(O)CC(NC(=O)c1cc(O)n(-c2ccccc2)n1)c1ccccc1Oc1ccccc1 (stereo not drawn) [Example 442] | 1000 to 30000 | – |
| O=C(O)CC(NC(=O)c1cc(O)n(-c2ccccc2)n1)c1cc(F)ccc1C(F)(F)F (stereo not drawn) [Example 443, 3-(5-Fluoro-2-trifluoromethyl-phenyl)-3-[(5-hydroxy-1-phenyl-1H-pyrazole-3-carbonyl)-amino]-propionic acid] | 100 to 1000 | 220 |
| O=C(O)CC(NC(=O)c1cc(O)n(-c2ccccc2)n1)c1cc(Cl)ccc1Cl (stereo not drawn) [Example 444, 3-(2,5-Dichloro-phenyl)-3-[(5-hydroxy-1-phenyl-1H-pyrazole-3-carbonyl)-amino]-propionic acid] | < 100 | 83.1 |
| Cc1ccc([C@H](CC(=O)O)NC(=O)c2cc(O)n(-c3ccccc3)n2)cc1 [Example 445, (S)-3-[(5-Hydroxy-1-phenyl-1H-pyrazole-3-carbonyl)-amino]-3-p-tolyl-propionic acid] | 100 to 1000 | 130 |
| O=C(O)C[C@H](NC(=O)c1cc(O)n(-c2ccccc2)n1)c1ccccc1Cl [Example 446, (S)-3-(2-Chloro-phenyl)-3-[(5-hydroxy-1-phenyl-1H-pyrazole-3-carbonyl)-amino]-propionic acid] | 100 to 1000 | 120 |
| Cc1c(F)cccc1C(CC(=O)O)NC(=O)c1cc(O)n(-c2ccc(F)cc2F)n1 (stereo not drawn) [Example 447, 3-{[1-(2,4-Difluoro-phenyl)-5-hydroxy-1H-pyrazole-3-carbonyl]-amino}-3-(3-fluoro-2-methyl-phenyl)-propionic acid] | 100 to 1000 | 114 |
| CN(C)c1ccc(C(CC(=O)O)NC(=O)c2cc(O)n(-c3ccc(F)cc3F)n2)c(Cl)c1 (stereo not drawn) [Example 448, 3-(2-Chloro-4-dimethylamino-phenyl)-3-{[1-(2,4-difluoro-phenyl)-5-hydroxy-1H-pyrazole-3-carbonyl]-amino}-propionic acid] | 100 to 1000 | 884 |
| COc1cccc(F)c1C(CC(=O)O)NC(=O)c1cc(O)n(-c2ccc(F)cc2F)n1 (stereo not drawn) [Example 449, 3-{[1-(2,4-Difluoro-phenyl)-5-hydroxy-1H-pyrazole-3-carbonyl]-amino}-3-(2-fluoro-6-methoxy-phenyl)-propionic acid] | 100 to 1000 | 176 |
| O=C(O)CC(NC(=O)c1cc(O)n(-c2ccc(F)cc2F)n1)c1cccc2c1OC(F)(F)O2 (stereo not drawn) [Example 450, 3-(2,2-Difluoro-benzo[1,3]dioxol-4-yl)-3-{[1-(2,4-difluoro-phenyl)-5-hydroxy-1H-pyrazole-3-carbonyl]-amino}-propionic acid] | 100 to 1000 | 409 |
| O=C(O)CC(NC(=O)c1cc(O)n(-c2ccc(F)cc2F)n1)c1cc(F)ccc1F (stereo not drawn) [Example 451, 3-(2,5-Difluoro-phenyl)-3-{[1-(2,4-difluoro-phenyl)-5-hydroxy-1H-pyrazole-3-carbonyl]-amino}-propionic acid] | 100 to 1000 | 233 |
